One data set concerns the target T1, 5-HT1AR (Homo sapiens, UniProt P08908).
T1 sequence (P08908 1-422): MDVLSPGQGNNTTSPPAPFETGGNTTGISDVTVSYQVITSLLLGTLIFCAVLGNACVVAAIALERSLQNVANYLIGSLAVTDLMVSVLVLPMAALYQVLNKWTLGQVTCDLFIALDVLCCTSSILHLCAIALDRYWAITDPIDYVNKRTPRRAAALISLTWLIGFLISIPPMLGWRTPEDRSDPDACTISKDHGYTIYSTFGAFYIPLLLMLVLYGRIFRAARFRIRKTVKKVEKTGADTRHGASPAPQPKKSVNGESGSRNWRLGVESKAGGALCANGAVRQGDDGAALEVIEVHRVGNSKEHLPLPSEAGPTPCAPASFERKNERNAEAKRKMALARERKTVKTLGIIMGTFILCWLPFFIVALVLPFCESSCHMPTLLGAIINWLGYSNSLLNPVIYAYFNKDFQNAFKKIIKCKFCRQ
Kind of data set: Radioligand binding assay, [3H]-8-OH-DPAT displacement. The settings on record: mean ± SD from two independent measurements; read-out: Ki 5-HT1A. The protocol:
(§1) Cell pellets were thawed and homogenized in 10 vol of assay buffer using an Ultra Turrax tissue homogenizer and centrifuged twice at 35 000 g for 15 min at 4 °C, with incubation for 15 min at 37 °C in between. The composition of the assay buffers was as follows: for 5-HT1AR: 50 mM Tris HCl, 0.1 mM EDTA, 4 mM MgCl2, 10 μM pargyline and 0.1% ascorbate; for 5-HT2AR: 50 mM Tris HCl, 0.1 mM EDTA, 4 mM MgCl2 and 0.1% ascorbate; for 5- HT7bR: 50 mM Tris HCl, 4 mM MgCl2, […] and 0.1% ascorbate; and for dopamine D2LR: 50 mM Tris HCl, 1 mM EDTA, 4 mM MgCl2, 120 mM NaCl, 5 mM KCl, 1.5 mM CaCl2 and 0.1% ascorbate. All assays were incubated in a total volume of […] in 96-well microtiter plates for 1 h at 37 °C, except 5-HT2AR which was incubated at 27 °C. The process of equilibration was terminated by rapid filtration through Unifilter plates with a 96-well cell harvester, and radioactivity retained on the filters was quantified on a Microbeta plate reader (PerkinElmer, USA). For displacement studies, the assay samples contained as radioligands (PerkinElmer, USA): 2.5 nM [^3H]-8-OH-DPAT (135.2 Ci/mmol) for 5-HT1AR; 1 nM [3H]-ketanserin (53.4 Ci/mmol) for 5- HT2AR; 0.8 nM [3H]-5- CT (39.2 Ci/mmol) for 5-HT7R or 2.5 nM [3H]-raclopride (72 Ci/mmol) for D2LR. Nonspecific binding was defined with […] of 5-HT in 5-HT7R binding experiments, whereas […] were used in 5-HT2AR and D2L assays, respectively. Each compound was tested in triplicate at 7 concentrations (10^–10–10^–4 M). The inhibition constants (Ki) were calculated using the Cheng–Prusoff equation.[48] Results were expressed as means of at least two separate experiments.

Data set [1] concerns the target T2, 5-HT7R (Homo sapiens, UniProt P34969). On the set-up: method as in PMID 29439902, PMID 29425815, PMID 28886235, PMID 26900658. The settings on record: earlier results for the racemic hits; read-out: 5-HT7R Ki of reference hit compounds; cited from earlier work.
Target sequence in this assay (P34969 1-432): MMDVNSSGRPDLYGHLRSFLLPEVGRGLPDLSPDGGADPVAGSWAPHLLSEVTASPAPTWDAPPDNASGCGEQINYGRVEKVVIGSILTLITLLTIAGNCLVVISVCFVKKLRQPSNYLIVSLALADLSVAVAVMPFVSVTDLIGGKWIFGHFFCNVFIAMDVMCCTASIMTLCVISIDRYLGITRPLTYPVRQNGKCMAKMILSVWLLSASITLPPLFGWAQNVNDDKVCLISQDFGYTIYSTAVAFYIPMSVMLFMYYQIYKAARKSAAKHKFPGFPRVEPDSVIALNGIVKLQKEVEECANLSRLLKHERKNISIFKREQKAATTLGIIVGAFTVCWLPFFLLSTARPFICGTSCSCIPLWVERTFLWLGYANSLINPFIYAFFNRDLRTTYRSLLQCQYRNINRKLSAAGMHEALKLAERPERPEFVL
A further data set has as its system locomotor activity. Kind of data set: Spontaneous locomotor activity in mice. The class given is in vivo. The protocol:
(§2) The behavioral experiments were performed on male BalbC mice weighing 20–25 g, n = 333. The animals were purchased from the Animal House at the Faculty of Pharmacy, Jagiellonian University Medical College, Krakow, Poland. Mice were kept in groups of ten in Makrolon type 3 cages (dimensions 26.5 × 15 × 42 cm). The animals were kept in an environmentally controlled room (ambient temperature 22 ± 2 °C; relative humidity 50–60%; 12:12 light: dark cycle; and lights on at 8:00). They were allowed to acclimatize with the environment enriched by nesting material, tooth grinding material, houses, and toys for 1 week before commencement of the experiments. During acclimatization, mice were accustomed to the presence of female experimenters and their appropriate manner of animals’ restraint, i.e., cupping each separate mouse in open hands, according to the 3Rs recommendations (handling).[50],[51] Standard laboratory food (Sniff M-Z) and filtered water were freely available. All the experiments were conducted in the light phase between 9 AM and 2 PM. Experimental groups consisted of 6–10 randomly selected animals, depending on the experiment, and each animal was used only once. The experiments were performed by an observer who was unaware of the treatment administered. All the experimental procedures with mice were carried out under EU Directive 2010/63/EU and were approved by the Local Ethics Commission for Animal Experiments of Jagiellonian University in Krakow (Approval nos.:297/2019).
(§3) Compounds were injected once intraperitoneally (i.p.) 60 min before tests, at a volume of 10 mL/kg. Control animals received a vehicle injection according to the same schedule.
Locomotor activity was recorded with an Opto M3 multichannel activity monitor (Columbus Instruments, Columbus, USA). […] According to the 3Rs recommendations,[54] locomotor activity was assessed for the minimal active doses obtained in FST and/or FPT to ensure that detected antidepressant-/anxiolytic-like effects are not the result of increased motility of mice.

A further data set concerns immobility time. Kind of data set: Forced swim test (FST, Porsolt's test) in mice. The settings on record: 60 min before test. The class given is in vivo. The method, then:
as §2, §3
The FST experiment was carried out according to the method of Porsolt et al.[52] The total duration of immobility was recorded during the last 4 min of this 6 min period. The reduction of immobility time compared to the control was a measure of antidepressant properties of the tested compound. A mouse was regarded as immobile when it remained floating on water, making only small movements to keep its head above it.

A further data set has as its system punished crossings. Description: Four-plate test (FPT) in mice. The settings on record: for increase of number of punished crossings vs vehicle: i.p., active doses. The class given is in vivo. The method, then:
as §2, §3
The four-plate apparatus (Bioseb, Pinellas Park, USA) was used for tests. Following a 15 s habituation period, the animal’s motivation to explore a novel environment is suppressed by an electric foot shock (0.8 mA, 0.5 s) every time it moves from one plate to another during a 1 min test session. This action is referred to as a “punished crossing” and is followed by a 3 s shock interval, during which the animal can move across plates without receiving a shock.[53]

A further data set has as its target dopamine D2LR (Homo sapiens, UniProt P14416). Kind of data set: Radioligand binding assay, [3H]-raclopride displacement. The settings on record: mean ± SD from two independent measurements; read-out: Ki D2. The method, then:
as §1

Data set [2] addresses T2, 5-HT7R. Kind of data set: Radioligand binding assay, [3H]-5-CT displacement. As to conditions: for Ki: mean ± SD from two independent measurements, read-out: Ki 5-HT7. The protocol:
as §1
Target sequence in this assay (P34969 1-432): as above

The target in another data set is 5-HT2AR (Homo sapiens, UniProt P28223). Kind of data set: Radioligand binding assay, [3H]-ketanserin displacement. As to conditions: mean ± SD from two independent measurements; read-out: Ki 5-HT2A. The method, then: as §1
Sequence of 5-HT2AR (P28223 whole entry): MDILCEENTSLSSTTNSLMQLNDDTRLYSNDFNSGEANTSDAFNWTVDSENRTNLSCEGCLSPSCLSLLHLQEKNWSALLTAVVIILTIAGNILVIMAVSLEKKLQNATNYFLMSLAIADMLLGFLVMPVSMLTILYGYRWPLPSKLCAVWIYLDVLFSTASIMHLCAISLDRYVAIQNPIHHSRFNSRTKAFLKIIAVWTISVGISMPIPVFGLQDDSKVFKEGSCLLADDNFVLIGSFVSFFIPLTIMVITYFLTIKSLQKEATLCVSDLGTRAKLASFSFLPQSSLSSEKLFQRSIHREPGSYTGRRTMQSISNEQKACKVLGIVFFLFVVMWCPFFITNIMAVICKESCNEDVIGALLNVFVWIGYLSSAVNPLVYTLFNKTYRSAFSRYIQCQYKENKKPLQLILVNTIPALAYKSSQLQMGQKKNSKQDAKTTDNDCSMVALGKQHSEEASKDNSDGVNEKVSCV
In data set [3] the target is T2, 5-HT7R. Kind of data set: cAMP functional assay (HTRF), antagonist effect, CHO cells. The class given is cell-based. The protocol: The cAMP concentration was measured using the HTRF method. Adenylate cyclase activity was expressed as the percentage of the maximal effect obtained with 300 nM serotonin. The compounds were tested at 7 concentrations (10^–12–10^–6 M) in the h5-HT7 antagonist effect.
Target sequence in this assay (P34969 1-445 isoform P34969-2): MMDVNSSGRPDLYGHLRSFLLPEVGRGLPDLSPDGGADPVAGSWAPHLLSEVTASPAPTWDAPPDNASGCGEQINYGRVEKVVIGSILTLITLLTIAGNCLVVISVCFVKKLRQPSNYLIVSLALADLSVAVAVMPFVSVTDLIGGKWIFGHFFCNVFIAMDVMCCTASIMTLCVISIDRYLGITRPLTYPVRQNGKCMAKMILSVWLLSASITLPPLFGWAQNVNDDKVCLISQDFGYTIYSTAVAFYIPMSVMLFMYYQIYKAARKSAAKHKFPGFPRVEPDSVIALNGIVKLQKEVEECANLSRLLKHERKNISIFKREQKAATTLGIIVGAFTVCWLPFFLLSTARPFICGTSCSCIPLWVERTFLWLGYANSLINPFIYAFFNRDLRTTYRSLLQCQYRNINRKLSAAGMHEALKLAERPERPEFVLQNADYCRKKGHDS
On the technique in general: TR-FRET usually uses a lanthanide donor and a delayed reading to cut background.

A further data set deals with T3, NK1 (Homo sapiens, UniProt P25103).
T3 construct: Eurofins Cerep
T3 sequence (P25103 whole entry): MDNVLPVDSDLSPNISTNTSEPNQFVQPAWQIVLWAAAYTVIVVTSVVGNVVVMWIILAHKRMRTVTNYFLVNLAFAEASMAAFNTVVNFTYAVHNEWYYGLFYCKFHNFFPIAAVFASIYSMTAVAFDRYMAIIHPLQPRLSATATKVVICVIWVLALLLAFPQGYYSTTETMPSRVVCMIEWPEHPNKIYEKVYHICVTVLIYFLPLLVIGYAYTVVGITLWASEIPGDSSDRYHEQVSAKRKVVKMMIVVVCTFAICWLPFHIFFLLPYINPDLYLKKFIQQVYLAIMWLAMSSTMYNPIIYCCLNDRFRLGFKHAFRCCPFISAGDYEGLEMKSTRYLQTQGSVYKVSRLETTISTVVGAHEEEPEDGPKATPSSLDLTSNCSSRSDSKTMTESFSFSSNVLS
Description: NK1 screening at 1 µM (Eurofins Cerep). The class given is cell-based. As to conditions: read-out: NK1 % inhibition of control agonist response. The method, then: (§4) 1.In vitro evaluation towards another related protein target (GABA, NK 1)
(§5) Table S2. Affinity results to GABA and NK 1 […]
(§6) Screening at 1 µM Screening at 1 µM
(§7) (% inhibition of control (% of inhibtion of control agonist response) specific binding) […]
(§8) adata are presented as the mean ± SD from two independent measurements
(§9) The above biological screening have been performed at Eurofins Cerep (2, rue du Professeur GARGOUÏL, B.P. 30001, 86 600 Celle l'Evescault, France according to previously described […]
(§10) Tsuji, A. et al. (1988), Antimicrob. Agents Chemother., 32: 190-194.
(§11) Eistetter, H.R. et al. (1992), Glia, 6: 89-95.
(§12) Detailed parameters for NK1 assay:
(§13) Detailed parameters for GABA (non-specific) assay: […]

The test system of another data set is GABA (non-specific). Description: GABA (non-specific) binding screening at 1 µM (Eurofins Cerep). The method, then:
as §4, §5, §6, §7, §8, §9, §10, §11, §12, §13

Like-named read-outs stand apart in the source and are kept apart here.

Sequence of dopamine D2LR (P14416 whole entry): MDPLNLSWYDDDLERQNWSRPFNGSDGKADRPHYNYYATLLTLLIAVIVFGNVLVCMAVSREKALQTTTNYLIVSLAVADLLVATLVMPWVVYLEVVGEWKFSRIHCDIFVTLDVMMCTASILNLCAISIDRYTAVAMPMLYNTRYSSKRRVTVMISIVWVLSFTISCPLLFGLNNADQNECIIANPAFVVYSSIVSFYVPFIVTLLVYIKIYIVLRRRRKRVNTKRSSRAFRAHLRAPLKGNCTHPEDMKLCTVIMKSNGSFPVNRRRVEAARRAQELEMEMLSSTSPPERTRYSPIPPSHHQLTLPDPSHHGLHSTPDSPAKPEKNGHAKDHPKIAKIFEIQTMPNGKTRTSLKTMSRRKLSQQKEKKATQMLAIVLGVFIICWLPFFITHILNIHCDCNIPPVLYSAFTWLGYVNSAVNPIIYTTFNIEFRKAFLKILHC

Regarding `CC1(c2ccc(F)cc2)NC(=O)N(CC(O)CN2CCN(C(c3ccccc3)c3ccccc3)CC2)C1=O` (stereo not drawn) [Compound 2], the Ki on 5-HT1AR is 5570 ± 1410 nM; at 5-HT7R [1], less than 100 nM; at dopamine D2LR, 261 ± 38 nM; on 5-HT7R [2], 79 ± 6 nM. Moreover, the “locomotor activity number of crossings ± SEM during 3–6 min” value with locomotor activity (0.312 mg/kg i.p.) is reported as 108.00 ± 42.04; NS; with locomotor activity (2.5 mg/kg i.p.) it was 211.50 ± 29.38; NS. Moreover, the “locomotor activity number of crossings ± SEM during 1 min” value is 9.75 ± 5.45; NS with locomotor activity (0.312 mg/kg i.p.) and 16.50 ± 6.12; NS in the data set on locomotor activity (2.5 mg/kg i.p.). The “locomotor activity number of crossings ± SEM during 60 min” value is 702.75 ± 122.53; NS in the data set with locomotor activity (0.312 mg/kg i.p.) and 2482.75 ± 587.23; NS with locomotor activity (2.5 mg/kg i.p.). Further, the “decrease of immobility time vs vehicle” value in the data set on immobility time (0.312 mg/kg i.p.) was 25%; in the data set on immobility time (0.63 mg/kg i.p.), “about 40%”; with immobility time (1.25 mg/kg i.p.), “about 40%”; in the data set with immobility time (2.5 mg/kg i.p.), “about 40%”; in the data set on immobility time (5 mg/kg i.p.) it was 26%. Also, the “increase of number of punished crossings” value with punished crossings (2.5 mg/kg i.p.) amounted to 62%. For the same molecule, in the data set with punished crossings, the “increase of number of punished crossings vs vehicle” value is “about 60%”.
On to `C[C@@]1(c2ccc(F)cc2)NC(=O)N(C[C@H](O)CN2CCN(C(c3ccccc3)c3ccccc3)CC2)C1=O` [Compound 6.4, (S)-3-((R)-3-(4-Benzhydrylpiperazin-1-yl)-2-hydroxypropyl)-5-(4-fluorophenyl)-5-methylimidazolidine-2,4-dione], for which the Ki came out at 8930 ± 1840 nM on 5-HT1AR, 511 ± 96 nM at dopamine D2LR, 8 ± 3 nM at 5-HT7R [2] and 5790 ± 1070 nM at 5-HT2AR. For the same molecule, the results for the “locomotor activity number of crossings ± SEM during 3–6 min” value with locomotor activity (1.25 mg/kg i.p.) and in the data set on locomotor activity (2.5 mg/kg i.p.) were 63.75 ± 25.93; NS and 105.75 ± 49.57; NS, respectively. Besides, the “locomotor activity number of crossings ± SEM during 1 min” value with locomotor activity (1.25 mg/kg i.p.) was 4.25 ± 0.46; NS. Further, the “locomotor activity number of crossings ± SEM during 60 min” value in the data set on locomotor activity (1.25 mg/kg i.p.) was 694.25 ± 78.90; NS; in the data set on locomotor activity (2.5 mg/kg i.p.) it was 922.50 ± 74.78; p < 0.001. Besides, the “decrease of immobility time vs vehicle” value with immobility time (2.5 mg/kg i.p.) is 29%. Besides, the anxiolytic-like activity result is reported as “did not reach significant levels” with punished crossings (5 mg/kg i.p.); “active” in the data set with punished crossings (doses of 1.25, 2.5 and 10 mg/kg i.p.). Further, in the data set on punished crossings, the “increase of number of punished crossings vs vehicle” value is on record as “about 60%”. Besides, the “fold higher 5-HT7R affinity in comparison to 2” value on 5-HT7R [2] (ratio of Ki values) is listed as approximately 10 fold. Further, on 5-HT7R [3] (cAMP functional test), the “intrinsic activity at 5-HT7R” value is “antagonists”. Besides, on 5-HT7R [3] (cAMP, CHO cells, h5-HT7 antagonist effect vs 300 nM serotonin), half-maximal inhibition (IC50) required 113 ± 25 nM. For the same molecule, the Kb on 5-HT7R [3] (cAMP, CHO cells, h5-HT7 antagonist effect, read-out: Kb ± SEM) amounted to 14 ± 3 nM. On NK1, the inhibition at 1 µM was -4.4%. Besides, the “GABA (non-specific) % of inhibition of control specific binding” value with GABA (non-specific) is 26%.

One may read the Ki as the equilibrium dissociation constant of an inhibitor or competing ligand from its target. A word on the IC50: it is the midpoint of a concentration-inhibition curve. As usually defined, the Kb is the affinity of an antagonist, worked out from how it opposes an agonist. The term inhibition denotes the relative decrease from the control value, in per cent.

(Values after article PMC11587507, “The Importance of Stereochemistry in 5-HT7R Modulation—A Case Study of Hydantoin Derivatives” (ACS Chemical Neuroscience, 2024).)
